From the supplement of paper PMC10412643

Tests used:
Conditions in all cases: CAMHB, incubation time 20 h
cefiderocol = compound: CC(C)(O/N=C(\C(=O)N[C@@H]1C(=O)N2C(C(=O)[O-])=C(C[N+]3(CCNC(=O)c4ccc(O)c(O)c4Cl)CCCC3)CS[C@H]12)c1csc(N)n1)C(=O)O [cefiderocol]
ceftazidime = compound: CC(C)(O/N=C(\C(=O)N[C@@H]1C(=O)N2C(C(=O)[O-])=C(C[n+]3ccccc3)CS[C@H]12)c1csc(N)n1)C(=O)O [ceftazidime]
meropenem = compound: C[C@@H](O)[C@H]1C(=O)N2C(C(=O)O)=C(S[C@@H]3CN[C@H](C(=O)N(C)C)C3)[C@H](C)[C@H]12 [meropenem]

| Test System | MIC (cefiderocol; avibactam 0 µg/mL) [µg/mL] | MIC (cefiderocol; avibactam 8 µg/mL) [µg/mL] | MIC (ceftazidime; avibactam 0 µg/mL) [µg/mL] | MIC (ceftazidime; avibactam 8 µg/mL) [µg/mL] | MIC (meropenem; avibactam 0 µg/mL) [µg/mL] | MIC (meropenem; avibactam 8 µg/mL) [µg/mL] |
| --- | --- | --- | --- | --- | --- | --- |
| P. aeruginosa PA14 | 1 | 1 | 2 | 2 | 0.5 | 0.25 |
| B. cenocepacia BC7 | > 4 | > 4 | 16 | 16 | 16 | 1 |
| A. xylosoxidans ACH03 | 0.125 | 0.125 | 1 | 1 | 0.25 | 0.25 |
| B. vietnamiensis VC18984 | > 4 | > 4 | 16 |  | 8 | 4 |
| B. cenocepacia F9141525 | 0.5 | 0.5 | 128 | 16 | 32 | 4 |
| S. maltophilia 05 41846 | 0.5 | 0.5 | 4 | 4 | > 64 | > 64 |
| S. maltophilia 03 T2510 | 1 | 1 | 32 | 32 | > 64 | > 64 |
| P. aeruginosa 20NB681421 | 1 | 1 | 4 | 4 | 1 | 0.5 |
| B. cenocepacia G11815681 | 2 | 0.5 | 16 | 8 | 32 | 2 |
| B. cenocepacia 134991 | > 4 | > 4 | 8 | 8 | 2 | 2 |
| B. cenocepacia K56-2 | 0.125 | 0.125 | 32 |  | 16 | 2 |
| B. contaminans LMG23361 | 0.125 | 0.125 | 2 | 2 | 4 | 0.5 |
| B. multivorans LM013010 | 0.25 | 0.25 |  |  | 8 | 1 |
| S. maltophilia 21NE928511 | > 4 | > 4 | > 128 | > 128 | > 64 | > 64 |
| B. dolosa CEP021 | 0.5 | 0.5 | 2 | 1 | 2 | 1 |
| B. multivorans VC19694 | 1 | 1 |  | 1 | 8 | 4 |
| B. cenocepacia F4200989-3 | 2 | 1 | 128 | 32 | 32 | 4 |
| B. contaminans 21NG595759 | 1 | 2 | 16 | 8 | 32 | 8 |
| B. cenocepacia 130723 | 0.5 | 0.25 | 16 | 8 | 4 | 1 |

| Test System | MIC (cefiderocol; avibactam 0 µg/mL) [µg/mL] | MIC (cefiderocol; avibactam 8 µg/mL) [µg/mL] | MIC (ceftazidime; avibactam 0 µg/mL) [µg/mL] | MIC (ceftazidime; avibactam 8 µg/mL) [µg/mL] | MIC (meropenem; avibactam 0 µg/mL) [µg/mL] | MIC (meropenem; avibactam 8 µg/mL) [µg/mL] |
| --- | --- | --- | --- | --- | --- | --- |
| B. dolosa AU0645 | > 4 | > 4 | > 128 | 8 | 16 | 2 |
| B. multivorans C5393 | 0.25 | 0.25 | 8 |  | 16 | 1 |
| B. vietnamiensis VC11431 | 1 | 0.125 | 32 | 2 | 16 | 1 |
| P. aeruginosa PAO1 | 1 | 1 | 1 | 1 | 0.5 | 0.5 |
| B. gladioli 113611 | 4 | 4 | 32 | 32 | 2 | 2 |
| B. dolosa LM018941 | > 4 | > 4 | 16 | 2 | 16 | 0.5 |
| B. cenocepacia VC14761 | 0.125 | 0.0625 | 2 | 2 | 4 | 1 |
| A. xylosoxidans ACH02 | 0.25 | 0.25 | 2 | 2 | 1 | 1 |
| P. aeruginosa 70 | 0.5 | 0.5 | 0.5 | 0.5 | 0.125 | 0.125 |
| S. maltophilia K279a | 0.125 | 0.125 | 2 | 1 | 2 | 2 |
| P. aeruginosa 74 | > 4 | > 4 | 128 | 2 | 16 | 2 |
| B. contaminans 21NG609698 | 2 | 2 | 16 |  | 32 | 8 |
| B. dolosa AU2167 | > 4 | > 4 | 64 |  | 32 | 1 |
| B. gladioli VC14812 | 0.5 | 0.5 | 32 | 16 | 8 | 8 |
| B. cenocepacia F3071909 | > 4 | > 4 | 32 | 32 | 16 | 2 |
| P. aeruginosa 21NE72623 | > 4 | > 4 | 16 | 2 | 0.5 | 0.125 |
| S. maltophilia 04 T22674 | 0.5 | 0.5 | 2 | 2 | 16 | 16 |
| B. cenocepacia 110041 | 0.0625 | 0.0625 |  |  | 32 | 4 |
| B. multivorans VC15535 | 0.5 | 0.5 | 32 | 16 | 16 | 8 |

| Test System | MIC (cefiderocol; avibactam 0 µg/mL) [µg/mL] | MIC (cefiderocol; avibactam 8 µg/mL) [µg/mL] | MIC (ceftazidime; avibactam 0 µg/mL) [µg/mL] | MIC (ceftazidime; avibactam 8 µg/mL) [µg/mL] | MIC (meropenem; avibactam 0 µg/mL) [µg/mL] | MIC (meropenem; avibactam 8 µg/mL) [µg/mL] |
| --- | --- | --- | --- | --- | --- | --- |
| B. cenocepacia VC14488 | 0.25 | 0.25 |  | 2 | 4 | 1 |
| B. gladioli 132208 | 0.5 | 0.5 | 2 | 2 | 0.5 | 0.5 |
| B. multivorans 134955 | 0.125 | 0.125 | 8 | 8 | 8 | 1 |
| B. multivorans V1120157 | 0.125 | 0.125 | 2 | 2 | 1 | 1 |
| B. multivorans 131077 | 0.125 | 0.125 | 8 | 8 | 4 | 1 |
| B. multivorans 130034 | 0.125 | 0.125 | 8 | 8 | 8 | 4 |
| B. multivorans VC9825 | 0.25 | 0.125 | 2 | 2 | 2 | 1 |
| S. maltophilia 20NC580771 | 0.25 | 0.25 | > 128 | > 128 | > 64 | > 64 |
| S. maltophilia D457 | 0.125 | 0.125 | 1 | 1 | 32 | 32 |
| B. cenocepacia VC14543 | 0.125 | 0.0625 | 8 | 8 | 16 | 4 |
| P. aeruginosa 71 | 4 | 4 | > 128 | 4 | 32 | 4 |
| B. cenocepacia VC10414 | 0.125 | 0.125 | 8 |  | 32 | 2 |
| B. multivorans VC15555 | > 4 | > 4 | 2 | 2 | 8 | 4 |
| A. xylosoxidans ACH09 | 0.25 | 0.25 | 1 | 1 | 0.125 | 0.125 |
| B. multivorans F9091687 | 0.25 | 0.25 | 2 | 2 | 0.5 | 0.5 |
| B. dolosa AU6940 | 2 | 2 | 16 | 16 | 32 | 2 |
| B. vietnamiensis CEP40 | 0.125 | 0.0625 |  | 2 | 1 | 1 |
| B. gladioli VC19233 | 0.25 | 0.25 |  | 2 | 1 | 1 |
